{"source": "patent US20150126551A1", "about": "“USE OF A […] HALIDE DERIVATIVE IN THE TREATMENT OF NEURODEGENERATIVE DISEASES” (Orphazyme ApS, priority 2003, published 2015)", "key": {"[1]": {"system": "mSOD1^(G93A) transgenic mice", "source_text": "Transgenic mSOD1^(G93A) mice of both sexes were used in this study."}, "[2]": {"system": "mSOD1^(G93A) transgenic mice", "settings": "mouse, in vivo"}}}
{"smiles": "O=C(O)CC(O)(CC(=O)O)C(=O)O.[O-][n+]1cccc(C(Cl)=NOC[C@H](O)CN2CCCCC2)c1", "note": "[compound A, (+)-R-N-[2-hydroxy-3-(1-piperidinyl)-propoxy]-pyridine-1-oxide-3-carboximidoyl chloride citrate]", "values": [{"measurement": "half relaxation time of EDL (mean +/- S.E.M.)", "setting": "[1]; 10 mg/kg i.p. daily from 35 days of age, 120 days of age, n=10, p=0.030 vs untreated (43.3 ms), wild-type 25.8 ms", "value": 32.2, "unit": "ms"}, {"measurement": "motor units survived in EDL muscles (mean +/- S.E.M.)", "setting": "[1]; 10 mg/kg i.p. daily from 35 days of age, assessed at 120 days of age, n=10, p=0.003 vs untreated (8.3), wild-type 28", "value": "14.3 +/−0.6"}, {"measurement": "fatigue index (FI) of EDL (mean +/- S.E.M.)", "setting": "[1]; 10 mg/kg i.p. daily, 120 days of age, stimulation 40 Hz, 3 minutes, n=10, p<0.05 vs untreated (0.255), wild-type 0.848", "value": "0.416+/−0.07"}, {"measurement": "average lifespan (mean +/- S.E.M.)", "setting": "[1]; treated mSOD1^(G93A) mice, n=7, untreated 125 days, endpoint: inability to right itself and loss of approximately 20% body weight", "value": "153 ± 2.6", "unit": "days"}, {"measurement": "decline in body weight", "setting": "[1]; treated vs untreated mSOD1^(G93A) mice", "value": "delayed"}, {"measurement": "increase in lifespan", "setting": "[1]; treated vs untreated mSOD1^(G93A) mice, p<0.001", "value": "over 22%"}, {"measurement": "motoneurons surviving in the sciatic motor pool (mean +/- S.E.M.)", "setting": "[2]", "value": "412+/−28"}]}
